Laboratory results published in patent US12545649B2, “WDR5-MYC inhibitors” (Vanderbilt University, priority 2019, dated 2026).

molecular target: T1, WDR5 (Homo sapiens, UniProt P61964); assay: Competition-based fluorescence polarization anisotropy (FPA) assay; format: binding; details: FITC small molecule probe
Protocol: (Thomas, […], et al, Molecular Cell 2015 (58): 440-452). Fluorescence polarization measurements were performed in 384-well plates (Greiner Bio One) using a Cytation 3 plate reader (BioTek). […] […] The assay buffer contained 200 mM phosphate, 300 mM NaCl, and 0.5 mM TCEP and 0.1% Chaps at pH 6.0. Compounds were serially diluted in assay buffer at a top concentration sufficient to yield a 9-point dose-response curve.

Compared with `O=S(=O)(Nc1cn(CC2CCCO2)cn1)c1cc(Br)cc(Cl)c1O` (centres unmarked) [Example 15, 5-Bromo-3-chloro-2-hydroxy-N-(1-((tetrahydrofuran-2-yl)methyl)-1H-imidazol-4-yl)benzenesulfonamide], `O=S(=O)(Nc1cn(CC2CC2)cn1)c1cc(Br)cc(Cl)c1O` [Example 5, 5-Bromo-3-chloro-N-(1-(cyclopropylmethyl)-1H-imidazol-4-yl)-2-hydroxybenzenesulfonamide] is 4.9-fold lower in Ki: 4030 nM for the first, 820 nM for the second. The second binds more tightly here.

Going from `O=S(=O)(Nc1cc(-c2ccccc2)[nH]n1)c1cc(Br)cc(Cl)c1O` [Example 35, 5-Bromo-3-chloro-2-hydroxy-N-(5-phenyl-1H-pyrazol-3-yl)benzenesulfonamide] to `O=S(=O)(Nc1nc2ccccc2s1)c1cc(Br)cc(Cl)c1O` [Example 37, N-(Benzo[d]thiazol-2-yl)-5-bromo-3-chloro-2-hydroxybenzenesulfonamide], the Ki falls from 1100 nM to 120 nM (9.2-fold).

Going from `O=C(c1nc(NS(=O)(=O)c2cc(Br)cc(Cl)c2O)cn1C1CCCC1)N1CCC(C2CCNC2)CC1` (centres unmarked) [Example 54, 5-Bromo-3-chloro-N-(1-cyclopentyl-2-(4-(pyrrolidin-3-yl)piperidine-1-carbonyl)-1H-imidazol-4-yl)-2-hydroxybenzenesulfonamide] to `Cc1nc(NS(=O)(=O)c2cc(Br)cc(Cl)c2O)cn1C1CCC1` [Example 17, 5-Bromo-3-chloro-N-(1-cyclobutyl-2-methyl-1-imidazol-4-yl)-2-hydroxybenzenesulfonamide], the Ki falls from 990 nM to 660 nM (1.5-fold). The second binds more tightly here.

First: O=S(=O)(Nc1cn(C2CCNC2)cn1)c1cc(Br)cc(Cl)c1O (centres unmarked) [Example 31, 5-Bromo-3-chloro-2-hydroxy-N-(1-(pyrrolidin-3-yl)-1H-imidazol-4-yl)benzenesulfonamide]
Second: O=S(=O)(Nc1cn(C2CCCC2)cn1)c1cc(Br)cc(Cl)c1O [Example 1, 5-Bromo-3-chloro-N-(1-cyclopentyl-1H-imidazol-4-yl)-2-hydroxybenzenesulfonamide]
The Ki of the first is 64-fold higher: 10300 nM for the first, 160 nM for the second.

First: O=S(=O)(Nc1cn(C(C2CC2)C2CC2)cn1)c1cc(Br)cc(Cl)c1O [Example 18, 5-Bromo-3-chloro-N-(1-(dicyclopropylmethyl)-1-imidazol-4-yl)-2-hydroxybenzenesulfonamide]
Second: O=S(=O)(Nc1cn(CC2CCCO2)cn1)c1cc(Br)ccc1O (centres unmarked) [Example 16, 5-Bromo-2-hydroxy-N-(1-((tetrahydrofuran-2-yl)methyl)-1H-imidazol-4-yl)benzenesulfonamide]
The Ki of the first is 20-fold lower: 970 nM for the first, 19200 nM for the second.

For `O=S(=O)(Nc1nc2ccc(OC(F)(F)F)cc2s1)c1cc(Br)cc(Cl)c1O` [Example 40, 5-Bromo-3-chloro-2-hydroxy-N-(6-(trifluoromethoxy)benzo[d]thiazol-2-yl)benzenesulfonamide], the Ki was 3900 nM.

system: MYC; assay: ChIP: disruption of binding of MYC to chromatin; format: cell-based; details: HEK293 cells expressing HA-tagged MYC, 20 μM, 10 h
Protocol: (§1) HEK293 cells expressing HA-tagged MYC and GFP were plated in growth media. Upon reaching approximately 70% confluence, cells were washed once with PBS then treated for 10 h with 20 μM compound in OptiMEM media. Cells were cross linked at room temperature in PBS containing 1% Formaldehyde for 10 minutes, then cells were scraped into 1.5 mL PBS supplemented with 125 mM Glycine. Cells were collected by centrifugation, washed once with PBS+125 mM Glycine, and pellets stored frozen. Chromatin was prepared by lysing cells at 80×10^6 per mL in ChIP Lysis Buffer (50 mM Tris pH 8.0, 140 mM NaCl, 1 mM EDTA, 1% Triton, 1% SDS and supplemented with protease inhibitor cocktail), Samples were sonicated (BioRuptor) for 30 minutes and cleared by centrifugation. Precipitation was performed essentially as described [Thomas L R 2015 Mol Cell] by diluting chromatin 1:9 in ChIP buffer without SDS. Decrosslinked DNA was diluted to 500 μL with water and 7.5 μL was used for each qPCR reaction. Percent input was calculated by comparison to a 30-fold dilution of decrosslinked chromatin. Primers used for ChIP have been described in Thomas, L. R.; Adams, C. M.; Wang, J.; Weissmiller, A. M.; Creighton, J.; Lorey, S. L.; Liu, Q.; Fesik, S. W.; Eischen, C. M.; Tansey, W. P. Interaction of the Oncoprotein Transcription Factor MYC with its Chromatin Cofactor WDR5 is Essential for Tumor Maintenance. […]

`CS(=O)(=O)c1nc(NS(=O)(=O)c2cc(Br)cc(Cl)c2O)cn1C1CCCC1` [Example 26, 5-Bromo-3-chloro-N-(1-cyclopentyl-2-(methylsulfonyl)-1H-imidazol-4-yl)-2-hydroxybenzenesulfonamide] was tested, and the “amount of MYC at ZFPM1 and ZMF771 (MYC binding independent of WDR5)” value was “nearly unaffected”.

`CS(=O)(=O)c1nc(NS(=O)(=O)c2cc(Br)cc(Cl)c2O)cn1C1CCCC1` [Example 26, 5-Bromo-3-chloro-N-(1-cyclopentyl-2-(methylsulfonyl)-1H-imidazol-4-yl)-2-hydroxybenzenesulfonamide] was tested, and the “amount of MYC at loci where MYC recruitment is dependent on WDR5 (C7orf40, RNPS1, RPS14, and RPL5)” value was “reduction”.

molecular target: T1, WDR5; assay: ChIP for WDR5 binding to chromatin; format: cell-based; details: HEK293 cells, 20 μM, 10 h
Protocol: as §1

`CS(=O)(=O)c1nc(NS(=O)(=O)c2cc(Br)cc(Cl)c2O)cn1C1CCCC1` [Example 26, 5-Bromo-3-chloro-N-(1-cyclopentyl-2-(methylsulfonyl)-1H-imidazol-4-yl)-2-hydroxybenzenesulfonamide] was tested, and the “WDR5 levels at these loci (ChIP for WDR5) versus negative control compound” value was “comparable levels”.
